Where two headings read alike, the source gives them in different places.
Biological target: Pseudomonas aeruginosa LpxC enzyme (Pseudomonas aeruginosa (strain ATCC 15692 / DSM 22644 / CIP 104116 / JCM 14847 / LMG 12228 / 1C / PRS 101 / PAO1), UniProt P47205)
Experiment: biochemical
Format: biochemical
[1] = class symbols A/B/C by IC50, Table 3, read-out: Enzyme inhibitory activity (inhibitory activity on Pseudomonas aeruginosa LpxC enzyme)

## CNC(=O)C(C(=O)NO)N(C)C(=O)c1ccc(C#Cc2ccc(CN3CC(OC)C3)cc2)cc1 (stereo not drawn) [Compound 505, N-hydroxy-2-[{[4-({4-[(3-methoxyazetidin-1-yl)methyl]phenyl}ethynyl)phenyl]carbonyl}(methyl)amino]-N′-methylpropanediamide]
[1]
  IC50: < 10 nM

## CCO/N=C/c1cc(C#Cc2ccc(C(=O)N(C)C(C(=O)NC)C(=O)NO)cc2)co1 (stereo not drawn) [Compound 506, 2-[{[4-({5-[(E)-(ethoxyimino)methyl]furan-3-yl}ethynyl)phenyl]carbonyl}(methyl)amino]-N-hydroxy-N′-methylpropanediamide]
[1]
  IC50: < 10 nM

## CNC(=O)C(C(=O)NO)N(C)C(=O)c1ccc(C#Cc2ccc(COCC(C)(C)N)cc2)cc1 (stereo not drawn) [Compound 508, 2-[{[4-({4-[(2-amino-2-methylpropoxy)methyl]phenyl}ethynyl)phenyl]carbonyl}(methyl)amino]-N-hydroxy-N′-methylpropanediamide]
[1]
  IC50: 10 to 100 nM

## CCCC(C)(C)CNCc1ccc(C#Cc2ccc(C(=O)N(C)C(C(=O)NC)C(=O)NO)cc2)cc1 (stereo not drawn) [Compound 510, 2-[({4-[(4-{[(2,2-dimethylpentyl)amino]methyl}phenyl)ethynyl]phenyl}carbonyl)(methyl)amino]-N-hydroxy-N′-methylpropanediamide]
[1]
  IC50: < 10 nM

## CNC(=O)C(C(=O)NO)N(C)C(=O)c1ccc(C#CC#Cc2cnn(C)c2)cc1 (stereo not drawn) [Compound 511, N-hydroxy-N′-methyl-2-[methyl({4-[4-(1-methyl-1H-pyrazol-4-yl)buta-1,3-diyn-1-yl]phenyl}carbonyl)amino]propanediamide]
[1]
  IC50: < 10 nM

## CNC(=O)C(C(=O)NO)N(C)C(=O)c1ccc(C#Cc2ccc(CN3CCCC(C)(C)C3)cc2)cc1 (stereo not drawn) [Compound 513, 2-[{[4-({4-[(3,3-dimethylpiperidin-1-yl)methyl]phenyl}ethynyl)phenyl]carbonyl}(methyl)amino]-N-hydroxy-N′-methylpropanediamide]
[1]
  IC50: < 10 nM

## CNC(=O)C(C(=O)NO)N(C)C(=O)c1ccc(C#Cc2coc(COC)c2)cc1 (stereo not drawn) [Compound 514, N-hydroxy-2-{[(4-{[5-(methoxymethyl)furan-3-yl]ethynyl}phenyl)carbonyl](methyl)amino}-N′-methylpropanediamide]
[1]
  IC50: < 10 nM

## CNC(=O)C(C(=O)NO)N(C)C(=O)c1ccc(C#Cc2ccc(CN3CC4CC4C3)cc2)cc1 (stereo not drawn) [Compound 515, 2-{[(4-{[4-(3-azabicyclo[3.1.0]hex-3-ylmethyl)phenyl]ethynyl}phenyl)carbonyl](methyl)amino}-N-hydroxy-N′-methylpropanediamide]
[1]
  IC50: < 10 nM

## CCN1Cc2cc(C#Cc3ccc(C(=O)N(C)C(C(=O)NC)C(=O)NO)cc3)ccc2[C@H]1C (stereo partly drawn) [Compound 516, 2-{[(4-{[(1R)-2-ethyl-1-methyl-2,3-dihydro-1H-isoindol-5-yl]ethynyl}phenyl)carbonyl](methyl)amino}-N-hydroxy-N′-methylpropanediamide]
[1]
  IC50: 10 to 100 nM

## CCn1cc(C#Cc2ccc(C(=O)N(C)C(C(=O)NC)C(=O)NO)cc2)cn1 (stereo not drawn) [Compound 517, 2-[({4-[(1-ethyl-1H-pyrazol-4-yl)ethynyl]phenyl}carbonyl)(methyl)amino]-N-hydroxy-N′-methylpropanediamide]
[1]
  IC50: 10 to 100 nM

## CNC(=O)C(C(=O)NO)N(C)C(=O)c1ccc(C#Cc2cnn(CCOC)c2)cc1 (stereo not drawn) [Compound 518, N-hydroxy-2-{[(4-{[1-(2-methoxyethyl)-1H-pyrazol-4-yl]ethynyl}phenyl)carbonyl](methyl)amino}-N′-methylpropanediamide]
[1]
  IC50: 10 to 100 nM

## CN(C(=O)c1ccc(C#Cc2ccc(CN3CCCOCC3)cc2)cc1)C(C(=O)NO)C(=O)NCc1ccccn1 (stereo not drawn) [Compound 520, N-hydroxy-2-{methyl[(4-{[4-(1,4-oxazepan-4-ylmethyl)phenyl]ethynyl}phenyl)carbonyl]amino}-N′-(pyridin-2-ylmethyl)propanediamide]
[1]
  IC50: < 10 nM

## CN(C(=O)c1ccc(C#Cc2ccc(CN3CCCOCC3)cc2)cc1)C(C)(C(=O)NO)C(=O)NCc1ccccn1 (stereo not drawn) [Compound 521, N-hydroxy-2-methyl-2-{methyl[(4-{[4-(1,4-oxazepan-4-ylmethyl)phenyl]ethynyl}phenyl)carbonyl]amino}-N′-(pyridin-2-ylmethyl)propanediamide]
[1]
  IC50: < 10 nM

## CNC(=O)C(C(=O)NO)N(C)C(=O)c1ccc(C#CC2=CCCCC2)cc1 (stereo not drawn) [Compound 523, 2-[{[4-(cyclohex-1-en-1-ylethynyl)phenyl]carbonyl}(methyl)amino]-N-hydroxy-N′-methylpropanediamide]
[1]
  IC50: 10 to 100 nM

## CNC(=O)C(C(=O)NO)N(C)C(=O)c1ccc(C#Cc2ccc(CN3CC4(CCC4)C3)cc2)cc1 (stereo not drawn) [Compound 524, 2-{[(4-{[4-(2-azaspiro[3.3]hept-2-ylmethyl)phenyl]ethynyl}phenyl)carbonyl](methyl)amino}-N-hydroxy-N′-methylpropanediamide]
[1]
  IC50: 10 to 100 nM

## CNC(=O)C(C(=O)NO)N(C)C(=O)c1ccc(C#Cc2ccc(CN3CC(C)(C)C3)cc2)cc1 (stereo not drawn) [Compound 525, 2-[{[4-({4-[(3,3-dimethylazetidin-1-yl)methyl]phenyl}ethynyl)phenyl]carbonyl}(methyl)amino]-N-hydroxy-N′-methylpropanediamide]
[1]
  IC50: 10 to 100 nM

## CNC(=O)C(C(=O)NO)N(C)C(=O)c1ccc(C#Cc2ccc(CN3C4CCC3CC4)cc2)cc1 (stereo not drawn) [Compound 527, 2-{[(4-{[4-(7-azabicyclo[2.2.1]hept-7-ylmethyl)phenyl]ethynyl}phenyl)carbonyl](methyl)amino}-N-hydroxy-N′-methylpropanediamide]
  IC50: 10 to 100 nM

## CNC(=O)C(C(=O)NO)N(C)C(=O)c1ccc(C#Cc2ccc(CN3CC(=CCOC)C3)cc2)cc1 (stereo not drawn) [Compound 530, N-hydroxy-2-[({4-[(4-{[3-(2-methoxyethylidene)azetidin-1-yl]methyl}phenyl)ethynyl]phenyl}carbonyl)(methyl)amino]-N′-methylpropanediamide]
[1]
  IC50: < 10 nM

## CCOC1CN(Cc2ccc(C#Cc3ccc(C(=O)N(C)C(C(=O)NC)C(=O)NO)cc3)cc2)C1 (stereo not drawn) [Compound 535, 2-[{[4-({4-[(3-ethoxyazetidin-1-yl)methyl]phenyl}ethynyl)phenyl]carbonyl}(methyl)amino]-N-hydroxy-N′-methylpropanediamide]
[1]
  IC50: < 10 nM

## CCOC1CN(Cc2ccc(C#Cc3ccc(C(=O)N(C)C(C(=O)NC)C(=O)NO)cc3)cc2C)C1 (stereo not drawn) [Compound 562, 2-[{[4-({4-[(3-ethoxyazetidin-1-yl)methyl]-3-methylphenyl}ethynyl)phenyl]carbonyl}(methyl)amino]-N-hydroxy-N′-methylpropanediamide]
[1]
  IC50: < 10 nM

## CCOC1CN(Cc2ccc(C#Cc3ccc(C(=O)N(C)C(C(=O)NC)C(=O)NO)cc3)c(F)c2)C1 (stereo not drawn) [Compound 564, 2-[{[4-({4-[(3-ethoxyazetidin-1-yl)methyl]-2-fluorophenyl}ethynyl)phenyl]carbonyl}(methyl)amino]-N-hydroxy-N′-methylpropanediamide]
[1]
  IC50: < 10 nM

## CCOC1CN(Cc2ccc(C#Cc3ccc(C(=O)N(C)C(C(=O)NC)C(=O)NO)cc3)c(C)c2)C1 (stereo not drawn) [Compound 568, 2-[{[4-({4-[(3-ethoxyazetidin-1-yl)methyl]-2-methylphenyl}ethynyl)phenyl]carbonyl}(methyl)amino]-N-hydroxy-N′-methylpropanediamide]
[1]
  IC50: < 10 nM

## CCOC1CN(Cc2ccc(C#Cc3ccc(C(=O)N(C)C(C(=O)NC)C(=O)NO)cc3)cc2OC)C1 (stereo not drawn) [Compound 572, 2-[{[4-({4-[(3-ethoxyazetidin-1-yl)methyl]-3-methoxyphenyl}ethynyl)phenyl]carbonyl}(methyl)amino]-N-hydroxy-N′-methylpropanediamide]
[1]
  IC50: 10 to 100 nM

## CCOC1CN(Cc2ccc(C#Cc3ccc(C(=O)N(C)C(C(=O)NC)C(=O)NO)cc3)cc2C(F)(F)F)C1 (stereo not drawn) [Compound 573, 2-[{[4-({4-[(3-ethoxyazetidin-1-yl)methyl]-3-(trifluoromethyl)phenyl}ethynyl)phenyl]carbonyl}(methyl)amino]-N-hydroxy-N′-methylpropanediamide]
[1]
  IC50: < 10 nM

## CCOC1CN(Cc2ccc(C#Cc3ccc(C(=O)N(C)C(C(=O)NC)C(=O)NO)cc3)c(C(F)(F)F)c2)C1 (stereo not drawn) [Compound 574, 2-[{[4-({4-[(3-ethoxyazetidin-1-yl)methyl]-2-(trifluoromethyl)phenyl}ethynyl)phenyl]carbonyl}(methyl)amino]-N-hydroxy-N′-methylpropanediamide]
[1]
  IC50: < 10 nM

## CNC(=O)[C@@](C)(C(=O)NO)N(C)C(=O)c1ccc(C#Cc2coc(C)n2)cc1 [Compound 575, (2S)-N-hydroxy-N′,2-dimethyl-2-[methyl({4-[(2-methyl-1,3-oxazol-4-yl)ethynyl]phenyl}carbonyl)amino]propanediamide]
[1]
  IC50: < 10 nM

## CNC(=O)[C@@](C)(C(=O)NO)N(C)C(=O)c1ccc(C#Cc2cc(C)on2)cc1 [Compound 576, (2S)-N-hydroxy-N′,2-dimethyl-2-[methyl({4-[(5-methyl-1,2-oxazol-3-yl)ethynyl]phenyl}carbonyl)amino]propanediamide]
[1]
  IC50: < 10 nM

## CCOC1CN(Cc2ccc(C#Cc3ccc(C(=O)N(C)C(C(=O)NC)C(=O)NO)cc3)cc2Cl)C1 (stereo not drawn) [Compound 579, 2-[{[4-({3-chloro-4-[(3-ethoxyazetidin-1-yl)methyl]phenyl}ethynyl)phenyl]carbonyl}(methyl)amino]-N-hydroxy-N′-methylpropanediamide]
[1]
  IC50: < 10 nM

## CCOC1CN(Cc2ccc(C#Cc3ccc(C(=O)N(C)C(C(=O)NC)C(=O)NO)cc3)c(F)c2F)C1 (stereo not drawn) [Compound 580, 2-[{[4-({4-[(3-ethoxyazetidin-1-yl)methyl]-2,3-difluorophenyl}ethynyl)phenyl]carbonyl}(methyl)amino]-N-hydroxy-N′-methylpropanediamide]
[1]
  IC50: < 10 nM

## CCOC1CN(Cc2ccc(C#Cc3ccc(C(=O)N(C)C(C(=O)NC)C(=O)NO)cc3F)cc2)C1 (stereo not drawn) [Compound 581, 2-[{[4-({4-[(3-ethoxyazetidin-1-yl)methyl]phenyl}ethynyl)-3-fluorophenyl]carbonyl}(methyl)amino]-N-hydroxy-N′-methylpropanediamide]
[1]
  IC50: < 10 nM
